Read-outs that look alike come from different tables or passages of the source.
Experiments:
[1] = target: T1, recombinant human ALK5 (TGF-βR1) protein (Homo sapiens, UniProt P36897); assay: Biochemical ALK5 (TGF-βR1) assay to measure pKi (LANCE Ultra ULight kinase assay); settings: apparent pKi from pIC50 by Cheng-Prusoff, read-out: ALK5 pKi (converted)
T1 construct: purchased Life Technologies PR9075A
T1 sequence (P36897 34-503): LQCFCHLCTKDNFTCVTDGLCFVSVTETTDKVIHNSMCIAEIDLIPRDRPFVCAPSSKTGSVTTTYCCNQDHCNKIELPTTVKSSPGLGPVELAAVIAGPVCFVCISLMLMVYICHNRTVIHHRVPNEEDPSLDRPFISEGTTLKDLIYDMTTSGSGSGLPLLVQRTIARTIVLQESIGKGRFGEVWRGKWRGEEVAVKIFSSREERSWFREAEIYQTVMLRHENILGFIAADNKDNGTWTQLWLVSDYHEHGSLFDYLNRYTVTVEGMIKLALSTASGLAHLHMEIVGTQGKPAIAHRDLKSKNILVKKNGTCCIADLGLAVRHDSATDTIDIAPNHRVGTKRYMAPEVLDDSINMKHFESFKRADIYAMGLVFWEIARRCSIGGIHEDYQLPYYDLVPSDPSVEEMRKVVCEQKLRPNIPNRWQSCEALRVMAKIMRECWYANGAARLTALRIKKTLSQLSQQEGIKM
Method: The assays were performed in a 384-well plate (24 columns×16 wells/rows). An Echo® 550 Liquid Handler (Labcyte) was used to prepare various intermediate concentrations of compounds of the present disclosure in 100% DMSO. From the intermediate concentrations, a range of concentrations (from 10 μM to 25 pM corresponding to volumes up to 105 nL) were prepared and ejected into a final assay plate to be used to create individual dose response curves for each of the subject compounds. To a separate column within the assay plate, 105 nL of DMSO in each well was used to establish a maximum assay signal.
With a multidrop dispenser, 8 μL of enzyme mixture (1.25× final) was added to each well. […] The plate was then sealed with an adhesive seal and allowed to equilibrate for 60 minutes at room temperature.
Next, 2 μL of 125 μM ATP (5× final, 125 μM ATP prepared in assay buffer with 2 mM DTT) was added to the incubated mixtures, covered with a MicroClime® Environmental Lid (Product No. LLS-0310, Labcyte) and immediately transferred to 37° C. The reactions were allowed to proceed at 37° C. for 60 minutes before terminating with the addition of 10 μL of detection antibody (LANCE® (lanthanide chelate excite) Ultra Europium-anti-phospo-DNA Topoisomerase 2-alpha (Thr1342)) in detection mixture (12 mM EDTA, 4 nM detection antibody prepared in detection buffer (50 mM Tris-HCl, 150 mM NaCl, 0.5% BSA (Fraction V), pH 7.0)) at room temperature. The plate was then read on a Perkin Elmer EnVision Plate Reader using europium specific reader settings with excitation and emission wavelengths set to 320 or 340 nm and 665 nm, respectively.
For dose-response analyses, percent inhibition versus compound concentrations were plotted, and pIC50 values were determined from a 4-parameter robust fit model with GraphPad Prism V5 Software (GraphPad Software, Inc., La Jolla, Calif.). This model obtains pIC50 values by fitting the sigmoidal dose-response (variable slope) equation to the data. Results were expressed as pIC50 (negative logarithm of IC50) and subsequently converted to pKi (negative logarithm of dissociate constant, K) using the Cheng-Prusoff equation. The higher the value of pKi (lower value of Ki), the greater the inhibition of ALK5 activity.

[2] = tested on: TGF-β-stimulated SMAD3 phosphorylation in BEAS-2B cells; assay: Cellular ALK5 potency assay, inhibition of TGF-β stimulated pSMAD3 formation in BEAS-2B cells; format: cell-based; settings: Homo sapiens, read-out: BEAS2B pIC50 (converted)
Method: The potency of compounds of the present disclosure for inhibition of TGF-β-stimulated SMAD3 phosphorylation was measured in BEAS-2B cells, a human lung epithelial cell line. TGF-β signals through activin receptor-like kinase 5 (ALK5) immediately prior to SMAD3 phosphorylation.
BEAS-2B cells were grown using 50% DMEM (Life Technologies) and 50% F-12 (Life Technologies) media, supplemented with 10% Fetal Bovine Serum (ATCC), 25 mM HEPES (Life Technologies), and 1× Pen-Strep (Life Technologies). Cells were cultured in a humidified incubator set at 37° C., 5% CO2, and trypsonized using 0.25% Trypsin with 0.5% polyvinylpyrrolidone (PVP).
For the assay, BEAS-2B cells were seeded at 7,500 cells/well (25 μL/well) in a 384-well plate and cultured overnight. Before dosing, growth media was aspirated and the wells were rinsed with HBSS Buffer (HBSS with Calcium and Magnesium, Life Technologies) supplemented with 25 mM HEPES (Life Technologies) and 1% Bovine Serum Albumin (Roche). Compounds were serially diluted in DMSO, then further diluted with supplemented HBSS Buffer (50 μL/well) to create a compound plate 3× of the final assay concentration, at 0.3% DMSO. The diluted compounds were then added to the cells (8 μL/well) and incubated at 37° C., 5% CO2 for 1 hour. After the compound incubation, TGF-β (R&D Systems) reconstituted in supplemented HBSS Buffer was added to the cells ([…], final concentration 10 ng/mL) and incubated for a further 30 minutes, after which the cells were immediately lysed with AlphaLISA lysis buffer (PerkinElmer). AlphaLISA Acceptor and Detector beads (PerkinElmer) were added 2 hours apart, then incubated overnight to be read the next day. The potency of the compound was determined through analysis of dose-dependent quantified changes in pSMAD3 signal from baseline (non-compound treated TGF-β stimulated cells). Data are expressed as pIC50 (negative decadic logarithm IC50) values.

[3] = inhibition of TGF-β stimulated pSMAD3 formation, BEAS-2B cells

| SMILES | Ki [1] | IC50 [2, 3] | IC50 ([2]; BEAS-2B) |
| --- | --- | --- | --- |
| Cc1nc(-c2n[nH]cc2-c2ccc3ncc(-c4cnn(C(=O)OC(C)C)c4)cc3n2)ccc1F [Compound 599, isopropyl 4-[6-[3-(5-fluoro-6-methyl-2-pyridyl)-1H-pyrazol-4-yl]-1,5-naphthyridin-3-yl]pyrazole-1-carboxylate] | < 0.0316 nM | < 20 nM | – |
| Cc1cccc(-c2n[nH]cc2-c2ccc3ncc(N4CCNCC4)cc3c2)n1 [Compound 529, 6-[3-(6-methyl-2-pyridyl)-1H-pyrazol-4-yl]-3-piperazin-1-yl-quinoline] | < 0.0316 nM | < 20 nM | – |
| Cc1cccc(-c2[nH]ncc2-c2ccc3ncc(C(=O)O[C@H]4CCNC4)cc3n2)n1 [Compound 210, [(3S)-pyrrolidin-3-yl]6-[5-(6-methyl-2-pyridyl)-1H-pyrazol-4-yl]-1,5-naphthyridine-3-carboxylate] | 0.398 to 3.16 nM | 25.1 to 158 nM | – |
| Cc1cccc(-c2n[nH]cc2-c2ccc3ncc(N4CCC(N)C4)cc3n2)n1 (stereo not drawn) [Compound 626, 1-[6-[3-(6-methyl-2-pyridyl)-1H-pyrazol-4-yl]-1,5-naphthyridin-3-yl]pyrrolidin-3-amine] | < 0.0316 nM | 25.1 to 158 nM | – |
| Cc1cccc(-c2n[nH]cc2-c2ccc3ncc(NC(=O)CCN4CCOCC4)cc3n2)n1 [Compound 286, N-[6-[3-(6-methyl-2-pyridyl)-1H-pyrazol-4-yl]-1,5-naphthyridin-3-yl]-3-morpholino-propanamide] | 0.0398 to 0.316 nM | 25.1 to 158 nM | – |
| Cc1cccc(-c2[nH]cnc2-c2ccc3ncc(-c4nc(C(=O)OCC5CNC5)cs4)cc3c2)n1 [Compound 746, azetidin-3-ylmethyl 2-[6-[5-(6-methyl-2-pyridyl)-1H-imidazol-4-yl]-3-quinolyl]thiazole-4-carboxylate] | < 0.0316 nM | 25.1 to 158 nM | – |
| Cc1cccc(-c2[nH]cnc2-c2ccc3ncc(C4=CCC(N)CC4)cc3c2)n1 (stereo not drawn) [Compound 196, 4-[6-[5-(6-methyl-2-pyridyl)-1H-imidazol-4-yl]-3-quinolyl]cyclohex-3-en-1-amine] | < 0.0316 nM | < 20 nM | – |
| Cc1cccc(-c2[nH]cnc2-c2ccc3ncc(Nc4nc5n(n4)CCNC5)cc3c2)n1 [Compound 338, 6-(5-(6-methylpyridin-2-yl)-1H-imidazol-4-yl)-N-(5,6,7,8-tetrahydro-[1,2,4]triazolo[1,5-a]pyrazin-2-yl)quinolin-3-amine] | 0.0398 to 0.316 nM | – | 200 to 1260 nM |
| Cc1cccc(-c2[nH]nnc2-c2ccc3ncc(N4CCNCC4)cc3c2)n1 [Compound 409, 6-[5-(6-methyl-2-pyridyl)-1H-triazol-4-yl]-3-piperazin-1-yl-quinoline] | 0.0398 to 0.316 nM | 25.1 to 158 nM | – |
| Cc1cccc(-c2n[nH]cc2-c2ccc3ncc(N[C@@]45C[C@@H]6C[C@@H](C[C@@](N)(C6)C4)C5)cc3n2)n1 [Compound 297, rac-(5S,7R)-N1-[6-[3-(6-methyl-2-pyridyl)-1H-pyrazol-4-yl]-1,5-naphthyridin-3-yl]adamantane-1,3-diamine] | 3.98 to 31.6 nM | 200 to 1260 nM | – |
| Cc1cccc(-c2[nH]cnc2-c2ccc3ncc(NC(=O)CC4CNC4)cc3c2)n1 [Compound 255, 2-(azetidin-3-yl)-N-[6-[5-(6-methyl-2-pyridyl)-1H-imidazol-4-yl]-3-quinolyl]acetamide] | 0.0398 to 0.316 nM | 200 to 1260 nM | – |
| Cc1cccc(-c2n[nH]cc2-c2ccc3ncc(C4=CCC(NC(C)C)CC4)cc3n2)n1 (stereo not drawn) [Compound 417, N-isopropyl-4-[6-[3-(6-methyl-2-pyridyl)-1H-pyrazol-4-yl]-1,5-naphthyridin-3-yl]cyclohex-3-en-1-amine] | < 0.0316 nM | 25.1 to 158 nM | – |
| Cc1cccc(-c2nc3ccccn3c2-c2ccc3ncc(N4CCC(N(C)C)CC4)cc3n2)n1 [Compound 683, N,N-dimethyl-1-[6-[2-(6-methyl-2-pyridyl)imidazo[1,2-a]pyridin-3-yl]-1,5-naphthyridin-3-yl]piperidin-4-amine] | 0.0398 to 0.316 nM | 25.1 to 158 nM | – |
| Cc1cccc(-c2[nH]cnc2-c2ccc3ncc(-c4ccc5c(c4)CCC5N)cc3c2)n1 (stereo not drawn) [Compound 275, 5-[6-[5-(6-methyl-2-pyridyl)-1H-imidazol-4-yl]-3-quinolyl]indan-1-amine] | 0.0398 to 0.316 nM | 25.1 to 158 nM | – |

Second part, led by results:

| Ki [1] | SMILES | IC50 [2, 3] | IC50 ([2]; BEAS-2B) |
| --- | --- | --- | --- |
| 0.0398 to 0.316 nM | Cc1cccc(-c2[nH]cnc2-c2ccc3ncc(-c4ccc(C(=O)OC[C@@H]5CCCN5)cn4)cc3c2)n1 [Compound 1163, [(2S)-pyrrolidin-2-yl]methyl 6-[6-[5-(6-methyl-2-pyridyl)-1H-imidazol-4-yl]-3-quinolyl]pyridine-3-carboxylate] | 25.1 to 158 nM | – |
| 0.398 to 3.16 nM | Cc1cccc(-c2[nH]cnc2-c2ccc3ncc(C(=O)OC[C@@H]4CCCN4)cc3c2)n1 [Compound 762, [(2S)-pyrrolidin-2-yl]methyl 6-[5-(6-methyl-2-pyridyl)-1H-imidazol-4-yl]quinoline-3-carboxylate] | 25.1 to 158 nM | – |
| 0.0398 to 0.316 nM | Cc1cccc(-c2[nH]cnc2-c2ccc3ncc(-c4nc(C(=O)O[C@H]5CCNC5)cs4)cc3c2)n1 [Compound 748, (S)-pyrrolidin-3-yl 2-(6-(5-(6-methylpyridin-2-yl)-1H-imidazol-4-yl)quinolin-3-yl)thiazole-4-carboxylate] | 25.1 to 158 nM | – |
| 0.398 to 3.16 nM | Cc1cccc(-c2[nH]ncc2-c2ccc3nccc(C(=O)O[C@H]4CC[C@H](N)CC4)c3c2)n1 [Compound 1217, (4-aminocyclohexyl) 6-[5-(6-methyl-2-pyridyl)-1H-pyrazol-4-yl]quinoline-4-carboxylate] | 25.1 to 158 nM | – |
| 0.0398 to 0.316 nM | Cc1cccc(-c2n[nH]cc2-c2ccc3nccc(-c4cnoc4)c3n2)n1 [Compound 832, 4-[6-[3-(6-methyl-2-pyridyl)-1H-pyrazol-4-yl]-1,5-naphthyridin-4-yl]isoxazole] | 25.1 to 158 nM | – |
| 0.0398 to 0.316 nM | Cc1cccc(-c2n[nH]cc2-c2ccc3nccc(CNCCN4CCN(C(C)C)CC4)c3n2)n1 [Compound 820, 2-(4-isopropylpiperazin-1-yl)-N-[[6-[3-(6-methyl-2-pyridyl)-1H-pyrazol-4-yl]-1,5-naphthyridin-4-yl]methyl]ethanamine] | 25.1 to 158 nM | – |
| < 0.0316 nM | Cc1cccc(-c2[nH]cnc2-c2ccc3ncc(-c4cc(C(=O)OCC5CNC5)cs4)cc3c2)n1 [Compound 1070, azetidin-3-ylmethyl 5-[6-[5-(6-methyl-2-pyridyl)-1H-imidazol-4-yl]-3-quinolyl]thiophene-3-carboxylate] | 25.1 to 158 nM | – |

Source: US11590116B2 (THERAVANCE BIOPHARMA R&D IP, LLC, priority 2019, dated 2023)
